In patent US20220324835A1 (Nurix Therapeutics, Inc., priority 2018, published 2022):

Key:
Cbl-b [1] = molecular target: T1, Cbl-b (Homo sapiens, UniProt Q13191); assay: Cbl-b inhibition assay (Cbl-b activity assay, FRET, Biological Example 1; 100 mM NaCl, 60 nM Src kinase); format: biochemical; conditions: upper bound stated in text lists; read-out: IC50 values in the Cbl-b inhibition assay of Biological Example 1
Outline: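 Here, the E2 UbcH5B, irreversibly linked to Bodipy-fluorescein ubiquitin, binds Cbl-b once Src kinase phosphorylates it; Cbl-b carries an N-terminal biotinylated Avi-tag captured by streptavidin-terbium. An absent FRET signal indicates inhibition.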

T-cell [2] = assay: IL-2 secretion from T-cells co-stimulated with anti-CD3 and anti-CD28 antibody (Biological Example 2); format: cell-based, human; conditions: Homo sapiens, T-cell, primary human total T-cells, baseline = anti-CD3/anti-CD28 stimulated cells without inhibitor, read-out: IL-2 secretion, Anti-CD3/Anti-CD28 stimulation, fold change over baseline; for fold induction at 0.3 µM: 0.3 μM compound; for fold induction at 1 µM: 1 μM compound; for fold induction at 4 µM: 4 μM compound
Outline: (§1)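 Values are fold-change over baseline: readings (IL-2 release, CD25 staining) from inhibitor-treated T-cells divided against untreated cells […]. No detailed procedure stated.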

T-cell [3] = assay: CD25 cell surface staining on T-cells co-stimulated with anti-CD3 and anti-CD28 antibody (Biological Example 2); format: cell-based, human; conditions: Homo sapiens, T-cell, primary human total T-cells, baseline = anti-CD3/anti-CD28 stimulated cells without inhibitor, read-out: CD25 staining, Anti-CD3/Anti-CD28 stimulation, fold change over baseline; for fold induction at 0.3 µM: 0.3 μM compound; for fold induction at 1 µM: 1 μM compound; for fold induction at 4 µM: 4 μM compound
Outline: as §1

Cbl-b [4] = molecular target: T1, Cbl-b; assay: Cbl-b activity assay (Cbl-b inhibition assay), TR-FRET of Cbl-b interaction with UbcH5B-Ub; format: biochemical; conditions: assay buffer with 100 mM NaCl, 60 nM Src kinase; read-out: Cbl-b activity IC50
Outline: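 Compound-treated Cbl-b was incubated 1.5 h with Src kinase (60 nM final; 30 nM for asterisked values, which also used 50 mM instead of 100 mM NaCl), 1 mM ATP and 5 mM MgCl2. Binding to fluorescent Ub-loaded UbcH5B (C85K mutant) was then read by TR-FRET after 1 h more.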

Cbl-b (residues 36-427) = Cbl-b (residues 36-427) (Homo sapiens, UniProt Q13191); assay: Cbl-b binding assay (SPR, Biacore T200); conditions: 20° C., 1:1 binding model
Cbl-b (residues 36-427), sequence (Q13191 36-427): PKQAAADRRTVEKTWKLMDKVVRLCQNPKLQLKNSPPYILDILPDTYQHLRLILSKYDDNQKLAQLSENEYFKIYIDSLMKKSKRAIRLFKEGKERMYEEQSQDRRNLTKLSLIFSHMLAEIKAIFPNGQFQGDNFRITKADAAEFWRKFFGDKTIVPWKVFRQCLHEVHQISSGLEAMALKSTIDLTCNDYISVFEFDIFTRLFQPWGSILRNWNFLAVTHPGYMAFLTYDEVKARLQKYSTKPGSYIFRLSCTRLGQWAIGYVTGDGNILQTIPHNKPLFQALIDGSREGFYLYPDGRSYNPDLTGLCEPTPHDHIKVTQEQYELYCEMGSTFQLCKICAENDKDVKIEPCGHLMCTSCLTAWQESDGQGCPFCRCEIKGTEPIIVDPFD
Outline: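 NeutrAvidin capture chip, 20° C; 50 s injections at 50 μl/min, 90-180 s dissociation; 0.3 M NaCl regeneration. Asterisked column: 50 mM NaCl buffer and 30 nM Src kinase in place of 100 mM NaCl and 60 nM Src kinase. 1:1 fit.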

T-cell [5] = assay: IL-2 secretion from T-cells stimulated with anti-CD3 antibody alone (Biological Example 2); format: cell-based; conditions: primary human total T-cells, read-out: IL-2 secretion, Anti-CD3 stimulation, fold change over baseline; for fold induction at 1 µM: 1 μM compound; for fold induction at 8 µM: 8 μM compound
T-cell [6] = assay: CD25 cell surface staining on T-cells stimulated with anti-CD3 antibody alone (Biological Example 2); format: cell-based; conditions: primary human total T-cells, baseline = anti-CD3/anti-CD28 stimulated cells without inhibitor, read-out: CD25 staining, Anti-CD3 stimulation, fold change over baseline; for fold induction at 1 µM: 1 μM compound; for fold induction at 8 µM: 8 μM compound

T1 sequence (Q13191 36-427): as above

| Structure (SMILES) | IC50 (Cbl-b [1]) [nM] | fold induction at 0.3 µM (T-cell [2]) | fold induction at 1 µM (T-cell [2]) | fold induction at 4 µM (T-cell [2]) | fold induction at 0.3 µM (T-cell [3]) | fold induction at 1 µM (T-cell [3]) | fold induction at 4 µM (T-cell [3]) | IC50 (Cbl-b [4]) [nM] | Kd (Cbl-b (residues 36-427)) [nM] | fold induction at 1 µM (T-cell [5]) | fold induction at 8 µM (T-cell [5]) | fold induction at 1 µM (T-cell [6]) | fold induction at 8 µM (T-cell [6]) |
| --- | --- | --- | --- | --- | --- | --- | --- | --- | --- | --- | --- | --- | --- |
| Cc1c[nH]nc1C[C@@H](C)c1cccc(N2Cc3c(cc(C(=O)N4CCC(O)C4)cc3C(F)(F)F)C2=O)c1 (stereo in doubt) [Compound 463, 6-((S)-3-hydroxypyrrolidine-1-carbonyl)-2-(3-((R)-1-(4-methyl-1H-pyrazol-3-yl)propan-2-yl)phenyl)-4-(trifluoromethyl)isoindolin-1-one] | ≤ 100 | 1.01 to 2.5 | 2.51 to 5 | > 7.5 | 1.01 to 1.3 | 1.01 to 1.3 | 1.31 to 1.5 | < 100 | < 100 | 0.101 to 0.15 | > 0.201 | 0.801 to 1 | > 1 |
| Cn1cnnc1[C@H](F)C(C)(F)c1cccc(N2Cc3c(cccc3C(F)(F)F)C2=O)c1 (stereo in doubt) [Compound 479, 2-(3-((1S,2S)-1,2-difluoro-1-(4-methyl-4H-1,2,4-triazol-3-yl)propan-2-yl)phenyl)-4-(trifluoromethyl)isoindolin-1-one] | ≤ 100 | 1.01 to 2.5 | 1.01 to 2.5 | 1.01 to 2.5 | 1.01 to 1.3 | 1.01 to 1.3 | 1.01 to 1.3 | < 100 | 100 to 300 | < 0.05 | 0.101 to 0.15 | 0.601 to 0.8 | 0.801 to 1 |
| C[C@H](O)CNc1cc([C@H](C)Cc2nncn2C)cc(N2Cc3c(cccc3C(F)(F)F)C2=O)n1 [Compound 364, 2-(6-((S)-2-hydroxypropylamino)-4-((R)-1-(4-methyl-4H-1,2,4-triazol-3-yl)propan-2-yl)pyridin-2-yl)-4-(trifluoromethyl)isoindolin-1-one] |  | 1.01 to 2.5 | 1.01 to 2.5 | 1.01 to 2.5 | 1.01 to 1.3 | 1.01 to 1.3 | 1.01 to 1.3 | 301 to 1000 | 1000 to 3000 | 0.051 to 0.1 | 0.101 to 0.15 | 0.601 to 0.8 | 0.601 to 0.8 |
| C[C@H](CO)Nc1cc([C@H](C)Cc2nncn2C)cc(N2Cc3c(cccc3C(F)(F)F)C2=O)n1 [Compound 366, 2-(6-((R)-1-hydroxypropan-2-ylamino)-4-((R)-1-(4-methyl-4H-1,2,4-triazol-3-yl)propan-2-yl)pyridin-2-yl)-4-(trifluoromethyl)isoindolin-1-one] | ≤ 300 | 1.01 to 2.5 | 2.51 to 5 | 5 to 7.5 | 1.01 to 1.3 | 1.01 to 1.3 | 1.31 to 1.5 | 100 to 300 | 100 to 300 | 0.051 to 0.1 | > 0.201 | 0.801 to 1 | > 1 |
| Cc1conc1C[C@@H](C)c1cccc(N2Cc3c(cccc3C(F)(F)F)C2=O)c1 [Compound 367a, (R)-2-(3-(1-(4-Methylisoxazol-3-yl)propan-2-yl)phenyl)-4-(trifluoromethyl)isoindolin-1-one] | ≤ 300 | < 1 | < 1 | 1.01 to 2.5 | 1.01 to 1.3 | < 1 | 1.01 to 1.3 | 100 to 300 | 1000 to 3000 | 0.051 to 0.1 | 0.151 to 0.2 | 0.601 to 0.8 | 0.801 to 1 |
| C[C@H](Cc1nncn1C)c1cccc(N2Cc3c(cc(C4CC4)nc3C3CC3)C2=O)c1 [Compound 370, 4,6-dicyclopropyl-2-{3-[(2R)-1-(4-methyl-1,2,4-triazol-3-yl)propan-2-yl]phenyl}-3H-pyrrolo[3,4-c]pyridin-1-one] | ≤ 300 | 1.01 to 2.5 | 1.01 to 2.5 | 5 to 7.5 | 1.01 to 1.3 | 1.01 to 1.3 | > 1.76 | 100 to 300 | 100 to 300 | 0.051 to 0.1 | > 0.201 | 0.601 to 0.8 | 0.801 to 1 |
| C[C@H](Cc1nncn1C)c1cccc(N2Cc3c(ccnc3C(F)(F)F)C2=O)c1 [Compound 371, (R)-2-(3-(1-(4-methyl-4H-1,2,4-triazol-3-yl)propan-2-yl)phenyl)-4-(trifluoromethyl)-2,3-dihydro-1H-pyrrolo[3,4-c]pyridin-1-one] | ≤ 300 | 1.01 to 2.5 | 2.51 to 5 | 5 to 7.5 | 1.01 to 1.3 | 1.01 to 1.3 | 1.01 to 1.3 | 100 to 300 | 301 to 1000 | 0.101 to 0.15 | > 0.201 | 0.801 to 1 | > 1 |
| C[C@H](Cc1nncn1C)c1cccc(N2Cc3c(cc(C(C)(C)O)cc3C(F)(F)F)C2=O)c1 [Compound 374, (R)-6-(2-hydroxypropan-2-yl)-2-(3-(1-(4-methyl-4H-1,2,4-triazol-3-yl)propan-2-yl)phenyl)-4-(trifluoromethyl)isoindolin-1-one] | ≤ 100 | 2.51 to 5 | 5 to 7.5 | > 7.5 | 1.01 to 1.3 | 1.31 to 1.5 | 1.31 to 1.5 | < 100 | 100 to 300 | 0.151 to 0.2 | > 0.201 | 0.801 to 1 | > 1 |
| Cn1cnnc1[C@H](F)[C@](C)(F)c1cccc(N2Cc3c(cc(C4CC4)cc3C(F)(F)F)C2=O)c1 [Compound 481a, 6-cyclopropyl-2-[3-[(1S,2R)-1,2-difluoro-1-(4-methyl-4H-1,2,4-triazol-3-yl)propan-2-yl]phenyl]-4-(trifluoromethyl)-2,3-dihydro-1H-isoindol-1-one] |  | < 1 | 1.01 to 2.5 | 2.51 to 5 | 1.01 to 1.3 | 1.01 to 1.3 | 1.01 to 1.3 | 100 to 300 | 100 to 300 | 0.051 to 0.1 | 0.101 to 0.15 | 0.801 to 1 | > 1 |
| C[C@H](c1cc2c(c(C(F)(F)F)c1)CN(c1cccc(C3(Cc4nncn4C)COC3)c1)C2=O)N1CCC2(CC1)CC2 [Example 558b, (R)-6-(1-(6-azaspiro[2.5]octan-6-yl)ethyl)-2-(3-(3-((4-methyl-4H-1,2,4-triazol-3-yl)methyl)oxetan-3-yl)phenyl)-4-(trifluoromethyl)isoindolin-1-one] | ≤ 100 | > 7.5 | > 7.5 |  | 1.01 to 1.3 | 1.01 to 1.3 |  | < 100 |  | > 0.201 |  | > 1 |  |
